# Source: US9884854B2, “N-[(pyrimidinylamino)propanyl]-and N[(pyrazinylamino)proppanyl]arylcarboxamides” (Boehringer Ingelheim International GmbH, priority 2016, dated 2018)
# Where two headings read alike, the source gives them in different places.
# Tests used:
# human MDR1 P-gp = assay: Assay D: efflux in MDCK cells transfected with the human MDR1 gene; type: in vitro ADME, canine; conditions: dog; MDCK-MDR1 monolayers, pH 7.4, 37° C.; read-out: MDCK efflux ratio (BA/AB)
# Procedure: The MDCK assay provides information on the potential of a compound to pass the blood brain barrier. Permeability measurements across polarized, confluent MDCK-MDR1 cell monolayers grown on permeable filter supports are used as an in vitro absorption model: apparent permeability coefficients (PE) of the compounds across the MDCK-MDR1 cell monolayers are measured (pH 7.4, 37° C.) in apical-to-basal (AB) and basal-to-apical (BA) transport direction. The AB permeability (PEAB) represents drug absorption from the blood into the brain and the BA permeability (PEBA) drug efflux from the brain back into the blood via both, passive permeability as well as active transport mechanisms mediated by efflux and uptake transporters that are expressed on the MDCK-MDR1 cells, predominantly by the overexpressed human MDR1 P-gp. Identical or similar permeabilities in both transport directions indicate passive permeation, vectorial permeability points to additional active transport mechanisms. Higher PEBA than PEAB (PEBA/PEAB>5) indicates the involvement of active efflux mediated by MDR1 P-gp, which might compromises the goal to achieve sufficient brain exposure. Therefore this assay provides valuable support for selection of compounds applicable for further in vivo testing. High permeability not limited by efflux at the blood brain barrier is a favourable characteristic for compounds that are to be used for drugs acting primarily in the CNS
# D. Assessment of Efflux in Madin-Darby Canine Kidney (MDCK) Cells Transfected with the Human MDR1 Gene
# Apparent permeability coefficients (PE) of the compounds across the MDCK-MDR1 cell monolayers are measured (pH 7.4, 37° C.) in apical-to-basal (AB) and basal-to-apical (BA) transport direction. AB permeability (PEAB) represents drug absorption from the blood into the brain and BA permeability (PEBA) drug efflux from the brain back into the blood via both passive permeability as well as active transport mechanisms mediated by efflux and uptake transporters that are expressed on the MDCK-MDR1 cells, predominantly by the overexpressed human MDR1 P-gp. The compounds are assigned to permeability/absorption classes by comparison of the AB permeabilities with the AB permeabilities of reference compounds with known in vitro permeability and oral absorption in the human. Identical or similar permeabilities in both transport directions indicate passive permeation, vectorial permeability points to additional active transport mechanisms. Higher PEBA than PEAB indicates the involvement of active efflux mediated by MDR1 P-gp. Active transport is concentration-dependently saturable.
# MDCK-MDR1 cells (1-2×10e5 cells/1 cm2 area) are seeded on filter inserts (Costar transwell polycarbonate or PET filters, 0.4 μm pore size) and cultured (DMEM) for 7 days. Subsequently, the MDR1 expression is boosted by culturing the cells with 5 mM sodium butyrate in full medium for 2 days. Compounds are dissolved in appropriate solvent (like DMSO, 1-20 mM stock solutions). Stock solutions are diluted with HTP-4 buffer (128.13 mM NaCl, 5.36 mM KCl, 1 mM MgSO4, 1.8 mM CaCl2, 4.17 mM NaHCO3, 1.19 mM Na2HPO4×7H2O, 0.41 mM NaH2PO4×H2O, 15 mM HEPES, 20 mM glucose, 0.25% BSA, pH 7.4) to prepare the transport solutions (0.1-300 μM compound, final DMSO<=0.5%). The transport solution (TL) is applied to the apical or basolateral donor side for measuring A-B or B-A permeability (3 filter replicates), respectively. The receiver side contains the same buffer as the donor side. Samples are collected at the start and end of experiment from the donor and at various time intervals for up to 2 hours also from the receiver side for concentration measurement by HPLC-MS/MS or scintillation counting. Sampled receiver volumes are replaced with fresh receiver solution.
# OX1R = biological target: T1, OX1R (Homo sapiens, UniProt O43613); conditions: cited from earlier work
# T1 sequence (O43613 1-425): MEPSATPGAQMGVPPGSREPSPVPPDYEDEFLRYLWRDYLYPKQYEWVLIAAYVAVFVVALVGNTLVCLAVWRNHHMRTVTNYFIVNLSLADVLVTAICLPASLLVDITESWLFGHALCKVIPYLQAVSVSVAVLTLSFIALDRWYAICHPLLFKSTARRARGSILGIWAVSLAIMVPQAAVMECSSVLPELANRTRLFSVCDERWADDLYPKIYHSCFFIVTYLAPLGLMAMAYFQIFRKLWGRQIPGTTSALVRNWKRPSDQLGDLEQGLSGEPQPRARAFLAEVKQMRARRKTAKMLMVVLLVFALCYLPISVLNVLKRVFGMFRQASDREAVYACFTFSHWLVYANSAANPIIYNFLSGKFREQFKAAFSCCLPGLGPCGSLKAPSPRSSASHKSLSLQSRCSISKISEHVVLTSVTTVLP
# OX2R = biological target: T2, OX2R (Homo sapiens, UniProt O43614); conditions: cited from earlier work
# T2 sequence (O43614 1-444): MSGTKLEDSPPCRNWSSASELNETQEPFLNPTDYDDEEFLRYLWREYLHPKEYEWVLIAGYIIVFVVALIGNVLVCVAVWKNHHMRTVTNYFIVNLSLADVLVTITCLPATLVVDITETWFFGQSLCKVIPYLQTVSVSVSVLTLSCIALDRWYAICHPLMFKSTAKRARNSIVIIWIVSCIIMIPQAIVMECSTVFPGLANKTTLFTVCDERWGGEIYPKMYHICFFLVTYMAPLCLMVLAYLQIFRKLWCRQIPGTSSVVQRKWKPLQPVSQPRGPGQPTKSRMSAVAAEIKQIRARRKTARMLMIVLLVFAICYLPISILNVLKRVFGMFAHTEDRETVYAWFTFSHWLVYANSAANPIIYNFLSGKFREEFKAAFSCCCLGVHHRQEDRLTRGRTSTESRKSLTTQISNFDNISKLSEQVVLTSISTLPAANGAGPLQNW
# human Orexin 1 receptor = biological target: T3, human Orexin 1 receptor (Homo sapiens, UniProt O43613); assay: Assay A: OX1R IP1 (in vitro OX1R potency); type: cell-based
# T3 construct: stably expressing the full-length human Orexin 1 receptor and the aequorin photoprotein; expressed in transfected cells; host or cells: CHO-K1 (CHO-K1/hOx1), co-expressing aequorin
# T3 sequence (O43613 1-425): T1 sequence (O43613 1-425)
# Source text: Activation of the orexin receptors expressed in cell lines results in an increase in intracellular IP3 concentration. IP1, a downstream metabolite of IP3, accumulates in cells following receptor activation and is stable in the presence of LiCl. Using Homogeneous Time-Resolved Fluorescence technology with Lumi4-Tb cryptate (commercially available from Cisbio Bioassay.) and a suitable fluorescence plate reader. […] This technique is used to characterize pharmacological modification of the orexin receptors.
# A. In Vitro Testing of OX1R Potency: OX1R IP1
# IP1 measurements are performed in CHO-K1 cells stably expressing the full-length human Orexin 1 receptor and the aequorin photoprotein. Cells are cultivated in Ham's nutrient mixture F12 medium with 10% fetal calf serum, in a 37° C., 95% humidity and 5% CO2 incubator. The CHO-K1/hOx1 cell mass is expanded to larger cell numbers. The cells are obtained as frozen cells in cryo-vials and stored until use at −150° C. […] In preparation for the assay, 24 hours before the assay, the cells are thawed at 37° C. and immediately diluted with cell culture medium. After centrifugation, the cell pellet is re-suspended in medium and then distributed into the assay plates with a density of 10000 cells/25 μL per well. The plates are incubated for one hour at room temperature to reduce edge effects before they are incubated for 24 hours at 37° C./5% CO2. Compounds are prepared by an 8-point serial dilution in DMSO and a final dilution step into assay buffer (HBSS with 20 mM HEPES, 0.1% BSA and 50 mM LiCl, pH 7.4) to ensure a final DMSO concentration of 1% in the assay.
# On the day of the assay, cells in the plate are washed twice with 60 μL assay buffer (20 μL buffer remained in the wells after washing), followed by adding 5 μL per well of compounds diluted in assay buffer. After 15 minutes of incubation at room temperature 5 μL per well of Orexin A peptide (final concentration: 0.5 nM, and/or 50 nM) dissolved in assay buffer is added to the assay plate. The assay plate is incubated for 60 minutes at 37° C. Then 5 μl per well of Anti-IP1-Cryptate Tb solution and 5 μl per well of IP1-d2 dilution are added and the plate is incubated for a further 60 minutes light protected at room temperature. […] 8-point four parametric non-linear curve fitting and determination of IC50 values and Hill slopes is performed using a regular analysis software e.g. AssayExplorer (Accelrys).
# Kb values from Assay A (OX1R) and Assay B (OX2R) can then provide a selectivity ratio which is independent of the agonist (Orexin A) concentration.
# [1] = corresponds to pIC50, Table 3 of WO2016/034882
Structure (SMILES),efflux ratio (human MDR1 P-gp),OX2R IC50/OX1R IC50 (OX1R; Table 3 of WO2016/034882),OX2R pIC50 (OX2R; Table 3 of WO2016/034882),IC50 (OX2R; [1]) [µM],also measured
"CC[C@@H](CNc1cnc(C(F)(F)F)cn1)N(C)C(=O)c1cc(Cl)ccc1-n1nccn1 [Ex 40 in WO2016/034882, reference compound]",< 3,Table 3: 156,–,–,–
CC[C@@H](CNc1ncc(C(F)(F)F)cn1)N(C)C(=O)c1nc(C)ccc1-n1nccn1 [Ex 46 in WO2016/034882],< 3,3200,< 5.0,≥ 10,"OX2R IC50/OX1R IC50 (OX1R; Table 1 of WO2016/034882): 390; OX2R IC50/OX1R IC50 (OX1R; Table 2 of WO2016/034882): > 312; OX2R pIC50 (OX2R; Table 2 of WO2016/034882): < 5.0; IC50 (OX2R; corresponds to pIC50, Table 2 of WO2016/034882): > 10 µM"
CC[C@@H](CNc1ncc(C(F)(F)F)cn1)N(CC)C(=O)c1nc(C)ccc1-n1nccn1 [Ex 73 in WO2016/034882],–,–,< 6.0,> 1,–
"CC[C@@H](CNc1ncc(C(F)(F)F)cn1)N(C)C(=O)c1nc(C)ccc1-c1ncccn1 [Ex 84 in WO2016/034882, reference compound]",< 3,Table 3: 526,–,–,–
CC[C@@H](CNc1ncc(C(F)(F)F)cn1)N(C)C(=O)c1nc(C)ccc1-n1cccn1 [Ex 90 in WO2016/034882],< 3,Table 3: >526,< 6.0,–,–
CC[C@@H](CNc1ncc(C(F)(F)F)cn1)N(C)C(=O)c1c(F)cccc1-n1nccn1 [Ex 91 in WO2016/034882],< 3,–,< 5.1,≥ 7.95,–
CCN(C(=O)c1c(F)cccc1-n1nccn1)[C@@H](C)CNc1ncc(C(F)(F)F)cn1 [Example 7],< 3,–,–,–,more potent at OX1R (human Orexin 1 receptor; versus Example 91 in WO2016/034882): 25 fold
CCN(C(=O)c1nc(C)ccc1-n1cccn1)[C@@H](C)CNc1ncc(C(F)(F)F)cn1 [Example 12],< 3,–,–,–,higher potency at OX1R (human Orexin 1 receptor; versus Example 90 in WO2016/034882): at least 3 fold
